Laboratory results taken from ChEMBL document CHEMBL4680080 (J Med Chem, 2016).
Values after ≈ are worked out from the molar mass of the structure shown.

What was measured:
[1] = Drug metabolism in bile of fistula Wistar-Han rat model assessed as taurine conjugate formation at 60 umol/kg, iv by HPLC-ES-MS/MS analysis; assay type: ADME, organism-based; settings: in vivo, dose 60 µmol/kg
[2] = Stability in fistula Wistar-Han rat model assessed as drug stability in intestinal bacteria at 60 umol/kg, iv by HPLC-ES-MS/MS analysis; assay type: ADME, organism-based, Intestine; settings: in vivo, at 60 µmol/kg
[3] = Stability in bile of fistula Wistar-Han rat model assessed as drug recovery of unmodified compound at 60 umol/kg, iv by HPLC-ES-MS/MS analysis; assay type: ADME, organism-based; settings: at 60 µmol/kg, read-out: Drug recovery
[4] = Drug metabolism in liver of fistula Wistar-Han rat model assessed as drug recovery of taurine conjugate at 60 umol/kg, iv by HPLC-ES-MS/MS analysis; assay type: ADME, organism-based; settings: in vivo, dose 60 µmol/kg
physchem = settings: water

| Compound | Drug metabolism [1] | Stabilty [2] | dose excreted [3] [%] | Drug metabolism [4] | solubility (physchem) [µM] |
| --- | --- | --- | --- | --- | --- |
| C[C@H](CCC(=O)O)[C@H]1CC[C@H]2[C@@H]3[C@H](O)C[C@@H]4C[C@H](O)CC[C@]4(C)[C@H]3CC[C@]12C [CHENODIOL] | Metabolite_Detected | – | – | – | – |
| CC[C@H]1[C@@H](O)[C@@H]2[C@H]([C@@H](O)C[C@]3(C)[C@@H]([C@H](C)CCC(=O)O)CC[C@@H]23)[C@@]2(C)CC[C@@H](O)C[C@@H]12 | – | Stable | 50 | Metabolite_Notdetected | 150 (≈ 65.5 µg/mL) |
| CC[C@H]1[C@@H](O)[C@@H]2[C@H](CC[C@]3(C)[C@@H]([C@H](C)CCC(=O)O)CC[C@@H]23)[C@@]2(C)CC[C@@H](O)C[C@@H]12 [OBETICHOLIC ACID] | Metabolite_Detected | – | – | – | 9 (≈ 3.79 µg/mL) |
| C[C@H](CCC(=O)O)[C@H]1CC[C@H]2[C@@H]3[C@H](O)C[C@@H]4C[C@H](O)CC[C@]4(C)[C@H]3C[C@H](O)[C@]12C [CHOLIC ACID] | – | – | 10 | – | – |
| C[C@H](CCC(=O)O)[C@H]1CC[C@H]2[C@@H]3[C@@H](O)C[C@@H]4C[C@H](O)CC[C@]4(C)[C@H]3CC[C@]12C [URSODIOL] | Metabolite_Detected | – | – | – | 7 (≈ 2.75 µg/mL) |
